Measurements published in patent US8765433B2, “Alcohol dehydrogenases (ADH) useful for fermentive production of lower alkyl alcohols” (priority 2009, dated 2014).

Test system: Achromobacter xylosoxidans SadB (SadB), SEQ ID NO: 26
Experiment: isobutyraldehyde reduction kinetics (A340, initial rates)
Assay type: biochemical
Details: read-out: KM (NADH); cofactor
Description: This example describes preparation of ADH-gene constructs for over-expression/purification and measurement of enzyme activities using a time-course assay. Horse-liver ADH (HLADH; A-6128) was purchased from Sigma. Achromobacter xylosoxidans SadB (SadB), Saccharomyces cerevisiae ADH6 (ScADH6) and ADH7 (ScADH7), Entamoeba histolytica ADH1 (EhADH1), Bos Taurus Aldehyde Reductase (BtARD), Beijerinckia indica subsp. Indica ATCC 9039 (BiADH), Clostridium beijerinckii ADH (CbADH), Rana perezi ADH8 (RpADH8), Rattus norvegicus ADH1 (RnADH1), Thermus sp. ATN1 ADH (TADH), Phenylobacterium zucineum HLK1 ADH (PzADH), Methylocella silvestris BL2 ADH (MsADH), Acinetobacter baumannii AYE ADH (AbADH), Geobacillus sp. WCH70 ADH (GbADH), Vanderwaltozyma polyspora DSM 70294 ADH (VpADH), Mucor circinelloides ADH (McADH), and Rhodococcus erythropolis PR4ADH (ReADH) were the candidates for which subclones were prepared for protein expression and purification.
As a routine practice, the crude extracts and purified proteins were assayed for butanol oxidation activity, in order to ensure that the recombinant proteins were active throughout the purification process. […] Alcohol oxidation activities were carried out in 50 mM sodium phosphate buffer at pH 8.8 and aldehyde reduction reactions were assayed in 190 mM potassium phosphate buffer at pH 7.0. Depending on the nature of reaction being carried out, the enzyme and cofactor stocks were diluted in the reaction buffers at the respective pHs. Either buffer or cell extract prepared from the proprietary E. coli strain (with no ADH plasmid) was used as the negative control for assays with purified protein and cell-free extracts, respectively.
Kinetic constants of the ADH enzymes were calculated and compared to identify those candidate ADH enzymes with the most desirable properties for the conversion of isobutyraldehyde to isobutanol in the last step of the engineered pathway for isobutanol production. The assays for determining the kinetic constants were carried out using initial rates from the assays described above. […] The concentration of a given enzyme was such that it was conducive for the measurement of initial velocities over a 1-min time course. For each enzyme, Michaelis-Menten plots were generated with a broad range of substrate concentrations. Rough estimates of KM were obtained, based on which the assays were redesigned so as to use substrate concentrations in the range 0.5 to 10 times the KM value, to be able to obtain the appropriate kinetic constants. […] Reactions with isobutanol substrate were performed at 30° C. in 50 mM Sodium phosphate buffer, pH 8.8, containing 7.5 mM NAD. The Enzyme kinetics module (Version 1.3) of SigmaPlot 11 (Systat Software, Inc.) was used to fit data to Michaelis-Menten equations and calculate the kinetic constants. The kcat/KM is derived from the individual numbers of kcat and KM and not an experimentally determined value.
For those enzymes marked with an asterisk in Table 7, at least 3 assays were performed with separate preparations of the enzyme. All other numbers are values from either one assay or are averages from 2 assays performed with the same enzyme sample.

NC(=O)C1=CN([C@@H]2O[C@H](COP(=O)(O)OP(=O)(O)OC[C@H]3O[C@@H](n4cnc5c(N)ncnc54)[C@H](O)[C@@H]3O)[C@@H](O)[C@H]2O)C=CC1 [NADH, reduced nicotinamide adenine dinucleotide] was tested, and the Km was 20 µM.
